Columns and labels:
human estrogen receptor = target: T1, human estrogen receptor (Homo sapiens, UniProt P03372); test: suitable in vitro assay of estrogenic activity whose results correlate with the MCF-7 assay (outside toxicology laboratory); conditions: in vitro assay correlated to MCF-7 assay through common reference compounds
T1 sequence (P03372 1-595): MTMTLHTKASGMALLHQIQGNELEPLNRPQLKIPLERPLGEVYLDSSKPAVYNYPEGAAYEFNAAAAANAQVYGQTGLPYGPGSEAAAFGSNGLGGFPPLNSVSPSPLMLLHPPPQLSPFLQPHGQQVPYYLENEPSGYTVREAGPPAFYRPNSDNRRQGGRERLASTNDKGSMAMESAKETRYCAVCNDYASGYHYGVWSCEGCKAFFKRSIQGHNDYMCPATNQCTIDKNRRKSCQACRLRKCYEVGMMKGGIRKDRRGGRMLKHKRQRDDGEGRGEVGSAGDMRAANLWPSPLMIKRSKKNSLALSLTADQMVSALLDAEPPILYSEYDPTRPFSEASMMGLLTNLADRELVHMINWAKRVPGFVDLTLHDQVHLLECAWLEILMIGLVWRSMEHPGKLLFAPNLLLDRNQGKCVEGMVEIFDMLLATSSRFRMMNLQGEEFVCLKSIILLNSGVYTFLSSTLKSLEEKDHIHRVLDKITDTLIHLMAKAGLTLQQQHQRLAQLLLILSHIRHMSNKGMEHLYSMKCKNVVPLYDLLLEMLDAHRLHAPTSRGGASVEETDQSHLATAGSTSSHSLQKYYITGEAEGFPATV
Procedure: The polyhydric phenols used to make the diglycidyl ethers of each of Runs I-III were assayed for estrogenic activity by an outside toxicology laboratory using a suitable assay whose results are known to be directly correlatable to the MCF-7 assay based on common reference compounds.

MCF-7, clone WS8, cells = test: MCF-7 cell proliferation assay of estrogenic activity; assay type: cell-based, human; conditions: logarithmic (base 10) Relative Proliferative Effect relative to 17-beta estradiol, MCF-7 assay; values 'expected or measured'
Source text: The MCF-7 assay is a useful test for assessing whether a polyhydric phenol compound is appreciably non-estrogenic. The MCF-7 assay uses MCF-7, clone WS8, cells to measure whether and to what extent a substance induces cell proliferation via estrogen receptor (ER)-mediated pathways. The method is described in “Test Method Nomination: MCF-7 Cell Proliferation Assay of Estrogenic Activity” submitted for validation by CertiChem, Inc. to the National Toxicology Program Interagency Center for the Evaluation of Alternative Toxicological Methods (NICEATM) on Jan. 19, 2006 (available online at iccvam.niehs.nih gov/methods/endocrine/endodocs/SubmDoc.pdf).
A brief summary of the method of the aforementioned MCF-7 assay is provided below. MCF-7, clone WS8, cells are maintained at 37° C. in RMPI (or Roswell Park Memorial Institute medium) containing Phenol Red (e.g., GIBCO Catalog Number 11875119) and supplemented with the indicated additives for routine culture. An aliquot of cells maintained at 37° C. are grown for two days in phenol-free media containing 5% charcoal stripped fetal bovine serum in a 25 cm^2 tissue culture flask. Using a robotic dispenser such as an EPMOTION™ 5070 unit from Eppendorf AG, MCF-7 cells are seeded at 400 cells per well in 0.2 ml of hormone-free culture medium in Corning 96-well plates. The cells are adapted for 3 days in the hormone-free culture medium prior to adding the chemical to be assayed for estrogenic activity. The media containing the test chemical is replaced daily for 6 days. At the end of a 7 day exposure to the test chemical, the media is removed, the wells are washed once with 0.2 ml of HBSS (Hanks' Balanced Salt Solution), and then assayed to quantify amounts of DNA per well using a micro-plate modification of the Burton diphenylamine (DPA) assay, which is used to calculate the level of cell proliferation. […]

[1] = genotoxicity assays (e.g., Ames II assay)

| SMILES | estrogenic activity (human estrogen receptor) | Log RPE (MCF-7, clone WS8, cells) | further results |
| --- | --- | --- | --- |
| Cc1cc(Cc2cc(C)c(O)c(C)c2)cc(C)c1O [Structure 6, 4,4′-methylenebis(2,6-dimethylphenol)] | do not exhibit appreciable estrogenic activity | – | – |
| O=S(=O)(c1ccc(O)cc1)c1ccc(O)cc1 [Bisphenol S] | – | −2 | – |
| CC(C)(C)c1cc(O)c(C(C)(C)C)cc1O [Structure 12, 2,5-di-t-butylhydroquinone] | do not exhibit appreciable estrogenic activity | – | – |
| CCCC(c1cc(C(C)(C)C)c(O)cc1C)c1cc(C(C)(C)C)c(O)cc1C [Structure 7, 4,4′-butylidenebis(2-t-butyl-5-methylphenol)] | do not exhibit appreciable estrogenic activity | – | – |
| CC(C)(C)c1cc(Cc2cc(C(C)(C)C)c(OCC3CO3)c(C(C)(C)C)c2)cc(C(C)(C)C)c1OCC1CO1 (stereo not drawn) [Diglycidyl ether of 4,4′-methylenebis(2,6-di-tert-butylphenol)] | – | – | genotoxicity [1]: non-genotoxic |
| Oc1ccc(Cc2ccc(O)cc2)cc1 [Bisphenol F] | – | −2 | – |
| CC(C)(C)c1cc(Cc2cc(C(C)(C)C)c(O)c(C(C)(C)C)c2)cc(C(C)(C)C)c1O [Structure 8, 4,4′-methylenebis(2,6-di-t-butylphenol)] | do not exhibit appreciable estrogenic activity | – | – |
| C[C@]12CC[C@@H]3c4ccc(O)cc4CC[C@H]3[C@@H]1CC[C@@H]2O [17β-estradiol] | – | 2.00 | – |
| Cc1cc(Cc2cc(C)cc(C(C)(C)C)c2O)c(O)c(C(C)(C)C)c1 [Structure 9] | do not exhibit appreciable estrogenic activity | – | – |

Reference: US9724276B2, “Dental materials and method of manufacture” (Valspar Sourcing, Inc., priority 2012, dated 2017)
